Measurements: patent publication US12186358B2, “Compositions and methods for supporting immune health” (Plexus Worldwide, LLC, priority 2021, dated 2025)

Legend:
Format in all cases: cell-based, Human
Conditions in all cases: LPS 0.1 ng/mL
[1] = test system: IL-12p40; experiment: Cytokine expression in PBMC supernatants (Luminex multiplex): IL-12p40
Description: (§1) An exemplary natural-based composition is evaluated in an in vitro Peripheral Blood […] Cells cellular inflammation model.
(§2) Test Item Preparation: 120 mg of the exemplary composition (Project Shield) was dissolved in 6000 μL of CGM on the day of use to create a 2% (w/v) Dilution Stock Solution. A 2 ng/mL Working Stock of Lipopolysaccharides (“LPS”) was prepared fresh with IM and stored at 2-8° C. 10 μL LPS (2 ng/mL) was added to the appropriate wells for a final concentration of 0.1 ng/mL.
(§3) Complete Growth Media (CGM): To formulate CGM, RPMI was supplemented with 10% FBS and 100 U/mL penicillin+100 μg/mL streptomycin. CGM was prepared aseptically and stored at 2-8° C. for the duration of the study. CGM was warmed to 37° C. prior to use.
(§4) Cell Culture Set-up: Cells were thawed according to manufacturer's instructions, washed in CGM and assessed for viability using trypan blue staining. A stock cell solution of 2×10^6 cells/mL suspended in CGM was prepared. 100 μL of the stock solution was added to appropriate wells of a 96-well plate to seed 2×10^5 cells per well. […]
(§5) As illustrated in FIGS. 1-8, inflammatory cytokine expression for cell supernatants at 48 hours post stimulation/treatment. Expression was assessed by multiplex using the Luminex platform for the following cytokines: IFNγ, IL-1β, IL-6, IL-8, IL-10, IL-12p40, IL-12p70, TNF-α. […]

[2] = test system: TNF-α; experiment: Cytokine expression in PBMC supernatants (Luminex multiplex): TNF-α
Description: as §1, §2, §3, §4, §5

[3] = test system: IFNγ; experiment: Cytokine expression in PBMC supernatants (Luminex multiplex): IFNγ
Description: as §1, §2, §3, §4, §5

[4] = test system: IL-1β; experiment: Cytokine expression in PBMC supernatants (Luminex multiplex): IL-1β
Description: as §1, §2, §3, §4, §5

[5] = test system: IL-8; experiment: Cytokine expression in PBMC supernatants (Luminex multiplex): IL-8
Description: as §1, §2, §3, §4, §5

[6] = test system: IL-6; experiment: Cytokine expression in PBMC supernatants (Luminex multiplex): IL-6
Description: as §1, §2, §3, §4, §5

[7] = test system: IL-10; experiment: Cytokine expression in PBMC supernatants (Luminex multiplex): IL-10
Description: as §1, §2, §3, §4, §5

[8] = test system: IL-12p70; experiment: Cytokine expression in PBMC supernatants (Luminex multiplex): IL-12p70
Description: as §1, §2, §3, §4, §5

Lipopolysaccharides [LPS]
IL-12p40, LPS control Group vs Media Control ([1]; donor 1, 48 h): significantly increased | IL-12p40, LPS control Group vs Media Control ([1]; donor 2, 48 h): significantly increased | TNF-α, LPS control Group vs Media Control ([2]; donor 1, 48 h): not donor 1 | TNF-α, LPS control Group vs Media Control ([2]; donor 2, 48 h): significantly increased | IFNγ, LPS control Group vs Media Control ([3]; donor 1, 48 h): significantly increased | IFNγ, LPS control Group vs Media Control ([3]; donor 2, 48 h): significantly increased | IL-1β, LPS control Group vs Media Control ([4]; donor 1, 48 h): not significantly increased | IL-1β, LPS control Group vs Media Control ([4]; donor 2, 48 h): not significantly increased | IL-8, LPS control Group vs Media Control ([5]; donor 1, 48 h): not donor 1 | IL-8, LPS control Group vs Media Control ([5]; donor 2, 48 h): significantly increased | IL-6, LPS control Group vs Media Control ([6]; donor 1, 48 h): significantly increased | IL-6, LPS control Group vs Media Control ([6]; donor 2, 48 h): significantly increased | IL-10, LPS control Group vs Media Control ([7]; donor 1, 48 h): significantly increased | IL-10, LPS control Group vs Media Control ([7]; donor 2, 48 h): not donor 2 | IL-12p70, LPS control Group vs Media Control ([8]; donor 1, 48 h): significantly increased | IL-12p70, LPS control Group vs Media Control ([8]; donor 2, 48 h): significantly increased
